System: HCT-15
Assay: Cytotoxicity against TNFalpha-induced human HCT-15 cells assessed as reduction in cell viability preincubated for 2 hrs followed by TNFalpha stimulation and measured after 72 hrs by celltiter-glo assay
Type: functional, cell-based

With COc1cc(O)c2c(c1)/C=C/C[C@H](O)[C@H](O)C(=O)/C=C\C[C@H](C)OC2=O the EC50 was 2 nM.

From ChEMBL document CHEMBL4706727, “Discovery of 2,4-1H-Imidazole Carboxamides as Potent and Selective TAK1 Inhibitors” (ACS Med Chem Lett, 2021)
